Conditions: rat, in vivo
Method: Subsequently, these samples were administered to Wistar-strain rats as shown below and quantities of Cephalothin disappeared by absorption were measured.
In the experiment, Wistar-strain male rats, weighing 250 to 300 g, were narcotized with pentobarbital (50 mg/kg) and thereafter subjected to hypoabdominal incision for a first cannulation at a position about 1.5 cm from the anus and also another cannulation at a position 5 cm above the first cannulation. Subsequently, the rectum was internally washed with about 20 ml of isotonic sodium chloride solution kept at 38° C., and each sample was circulated at a flow rate of 2 ml/minute for 5 minutes to make the concentration in the system constant. Then, 6 ml of each sample was circulated at a flow rate of 2 ml/minute, and samples each of 0.05 ml were collected at intervals of 10 minutes. Each sample was diluted and the quantity of Cephalothin disappeared was determined by UV-spectrophotometer or high-speed liquid chromatography.

pectinic acid
absorption of Cephalothin: improves remarkably absorption of Cephalothin
absorption of Cephalothin under hyper tonic conditions: further improvement

From patent publication US4609640A, “Preparation having excellent absorption property” (priority 1981, dated 1986)
